The text below walks through data of patent publication US7589170B1, “Synthesis of cyclic peptides” (priority 1998, dated 2009).

Entries after “also recorded” stand apart in the source; their conditions may differ. Read-outs that look alike come from different tables or passages of the source.

The subject of series [1] is sympathetic varicosities of the mouse vas deferens. As to the kind of experiment: focal extracellular recording of evoked excitatory junction currents (EJC, measure of transmitter release). The series is classed as cell-based. The method, then: Each filled circle represents an EJC recorded during 100 minutes. Failure to record an EJC is indicated by filled circles on zero of the y-axis. The lower horizontal line indicates when the mixture of cyclic tetrapeptides (1 μM) was applied to the tissue bathing solution and the upper horizontal line when naloxone (1 μM) was added to the tissue bathing solution. […] Cyclo [Tyr-Arg-Phe-Gly] is SEQ ID NO:42.
Each bar is the average of at least 60 recordings, and the vertical lines show the standard deviation of the mean. […] Cyclo [Tyr-Arg-Phe-Gly] is SEQ ID NO:42.
Demorphin is a opioid heptapeptide isolated from the skin of South American frogs, and has the following sequence; {H-Tyr-D-Ala-Phe-Gly-Tyr-Pro-Ser-NH2; SEQ ID NO:71). The tetrapeptide analogues (H-Tyr-D-Ala-Phe-Gly-NH-Y; SEQ ID NO:29) are potent analgesics when administered by intracerebroventricular injection. In Example 3 we synthesised the cyclic tetrapeptides cyclo[Tyr-Arg-Phe-Gly] (SEQ ID NO:42) and cyclo[Tyr-Arg-D-Phe-Gly] (SEQ ID NO:42) designated WP 152 using our combination strategies.

The conditions of series [2]: the molecule shown is the open-chain precursor, amide bond, 15-membered ring.
Series [3] in a line: stability to heating in DMSO. The conditions noted are these: 20 h at 70° C. in DMSO. The series is classed as physicochemical.
Series [4] in a line: stability to hydrolysis in aqueous buffer at pH 9. In kind it is physicochemical.
Where [5] appears, read: from H-(Hnb)Tyr-Arg-(Hnb)Phe-Ala-OH, amide bond, 12-membered ring.
Where [6] appears, read: amide bond, 21-membered ring, BOP/2,6-lutidine, resin, -10.0 °C, with chain assembly.
Where [7] appears, read: amide bond, 16-membered ring, HATU/DIEA, DMF, resin, with chain assembly.
[8] abbreviates: amide bond, DIEA, DMF, resin, with chain assembly.

Molecule `CC[C@H](C)[C@@H]1NC(=O)[C@H](C)NC(=O)[C@H](CC(C)C)NC(=O)[C@H](CO)NC(=O)[C@H](CC(N)=O)NC(=O)[C@H](Cc2ccccc2)NC(=O)[C@@H]2CCCN2C1=O` [Cyclo-(Pro-Phe-Asn-Ser-Leu-Ala-Ile)] yielded a ring closure, yield after HPLC (from H-Asn-Ser-Leu-Ala-Ile-Pro-Phe-OH, amide bond, 21-membered ring, BOP/DIPEA, DMF, 1.0 mM, -10.0 °C) of 48%.

The molecule `N=C(N)NCCC[C@H]1C(=O)N[C@@H](Cc2ccccc2)C(=O)NCC(=O)N(Cc2c(O)cccc2[N+](=O)[O-])[C@@H](Cc2ccc(O)cc2)C(=O)N1Cc1c(O)cccc1[N+](=O)[O-]` [Cyclo-[(Hnb)Tyr-(Hnb)Arg-Phe-Gly]] gave a ring closure, yield after HPLC (from H-(Hnb)Tyr-(Hnb)Arg-Phe-Gly-OH?, amide bond, 12-membered ring, BOP/DIEA, DMF, 1.1 mM, 25.0 °C) of 61%.

`C[C@@H]1NC(=O)[C@H](Cc2ccccc2)N(Cc2c(O)cccc2[N+](=O)[O-])C(=O)[C@H](CCCNC(=N)N)NC(=O)[C@H](Cc2ccc(O)cc2)N(Cc2c(O)cccc2[N+](=O)[O-])C1=O` [Cyclo-[(Hnb)Tyr-Arg-(Hnb)Phe-Ala]] showed a ring closure, yield after HPLC (from H-(Hnb)Tyr-Arg-(Hnb)Phe-Ala-OH?, amide bond, 12-membered ring) of 60%.

Molecule `CC(C)C[C@@H]1NC(=O)[C@H](Cc2ccccc2)NC(=O)[C@H](C)N(Cc2cc([N+](=O)[O-])ccc2O)C(=O)[C@H](C)NC(=O)[C@@H]2CCCN2C1=O` [Cyclo-[N-(5-nitro-2-hydroxybenzyl)-Ala-Phe-Leu-Pro-Ala]] gave a ring closure, yield after HPLC (from H-(5-nitro-2-hydroxybenzyl)Ala-Phe-Leu-Pro-Ala-OH, amide bond, 15-membered ring, BOP/DIEA, DMF, 1.0 mM, 25.0 °C) of 51%.

Molecule `CC(C)C[C@@H]1NC(=O)[C@H](Cc2ccccc2)NC(=O)[C@H](C)N(Cc2c(O)cccc2[N+](=O)[O-])C(=O)[C@H](C)NC(=O)[C@@H]2CCCN2C1=O` [Cyclo-[N-(6-nitro-2-hydroxybenzyl)-Ala-Phe-Leu-Pro-Ala]] gave a ring closure, yield after HPLC (from H-(6-nitro-2-hydroxybenzyl)Ala-Phe-Leu-Pro-Ala-OH, amide bond, 15-membered ring, BOP/DIEA, DMF, 1.0 mM, 25.0 °C) of 39%.

With `CC(C)C[C@@H]1NC(=O)[C@H](Cc2ccccc2)N(Cc2c(O)cccc2[N+](=O)[O-])C(=O)[C@H](C)NC(=O)[C@H](C)NC(=O)[C@@H]2CCCN2C1=O` [Cyclo-[N-(6-nitro-2-hydroxybenzyl)-Phe-Leu-Pro-Ala-Ala]], the ring closure, yield after HPLC (from H-(6-nitro-2-hydroxybenzyl)Phe-Leu-Pro-Ala-Ala-OH, amide bond, 15-membered ring, BOP/DIEA, DMF, 1.0 mM, 25.0 °C) amounted to 44%.

The molecule `C[C@H]1C(=O)N[C@@H](Cc2ccc(O)cc2)C(=O)N(Cc2c(O)cccc2[N+](=O)[O-])[C@@H](CCCNC(=N)N)C(=O)N[C@@H](Cc2ccccc2)C(=O)N1Cc1c(O)cccc1[N+](=O)[O-]` [H-(Hnb)Ala-Tyr-(Hnb)Arg-Phe-OH] yielded a ring closure, yield after HPLC (from H-(Hnb)Ala-Tyr-(Hnb)Arg-Phe-OH, amide bond, 12-membered ring, BOP/DIEA, DMF, 1.0 mM, 25.0 °C) of 53%.

Molecule `N=C(N)NCCC[C@H]1C(=O)N[C@@H](Cc2ccccc2)C(=O)N(Cc2c(O)cccc2[N+](=O)[O-])CC(=O)N[C@@H](Cc2ccc(O)cc2)C(=O)N1Cc1c(O)cccc1[N+](=O)[O-]` [H-(Hnb)Gly-Tyr-(Hnb)Arg-Phe-OH?] had a ring closure, yield after HPLC (from H-(Hnb)Gly-Tyr-(Hnb)Arg-Phe-OH?, amide bond, 12-membered ring, BOP/DIEA, DMF, 1.18 mM) of 68%.

Take `COc1ccc(CN2CC(=O)NCC(=O)NCC(=O)N(Cc3ccc(OC)cc3O)CC2=O)c(O)c1` [H-Gly-(HMB)Gly-(HMB)Gly-Gly-OH]: the ring closure, yield after HPLC (from H-Gly-(HMB)Gly-(HMB)Gly-Gly-OH, amide bond, 12-membered ring, BOP/DIEA, DMF, 1.0 mM) is 16%.

Molecule `O=C1CNC(=O)CNC(=O)CNC(=O)CN1` [H-Gly-Gly-Gly-Gly-OH] displayed a ring closure, yield after HPLC (from H-Gly-Gly-Gly-Gly-OH, amide bond, 12-membered ring, BOP/DIEA, DMF, 1.0 mM) of 1%.

`CN1CC(=O)NCC(=O)NCC(=O)NCC1=O` [H-Gly-Gly-Gly-MeGly-OH] displayed a ring closure, yield after HPLC (from H-Gly-Gly-Gly-MeGly-OH, amide bond, 12-membered ring, BOP/DIEA, DMF, 1.0 mM) of 8%.

Turning to `CN1CC(=O)NCC(=O)NCC(=O)NCC1=O` [H-Gly-Gly-MeGly-Gly-OH], the ring closure, yield after HPLC (from H-Gly-Gly-MeGly-Gly-OH, amide bond, 12-membered ring, BOP/DIEA, DMF, 1.0 mM) amounted to 11%.

Where the note is “from H-Gly-Gly-MeGly-MeGly-OH, amide bond, 12-membered ring”, `CN1CC(=O)NCC(=O)NCC(=O)N(C)CC1=O` [H-Gly-Gly-MeGly-MeGly-OH] yielded a ring closure, yield after HPLC of 18%.

For `CN1CC(=O)NCC(=O)NCC(=O)NCC1=O` [H-Gly-MeGly-Gly-Gly-OH], where the note is “from H-Gly-MeGly-Gly-Gly-OH, amide bond, 12-membered ring, BOP/DIEA, DMF, 1.0 mM”, the ring closure, yield after HPLC is 1%.

`CN1CC(=O)NCC(=O)N(C)CC(=O)NCC1=O` [H-Gly-MeGly-Gly-MeGly-OH] gave a ring closure, yield after HPLC (from H-Gly-MeGly-Gly-MeGly-OH, amide bond, 12-membered ring, BOP/DIEA, DMF, 1.0 mM) of 2%.

Turning to `CN1CC(=O)NCC(=O)NCC(=O)N(C)CC1=O` [H-Gly-MeGly-MeGly-Gly-OH], under “from H-Gly-MeGly-MeGly-Gly-OH, amide bond, 12-membered ring”, the ring closure, yield after HPLC was determined as 13%.

Turning to `CN1CC(=O)NCC(=O)N(C)CC(=O)N(C)CC1=O` [H-Gly-MeGly-MeGly-MeGly-OH], under “from H-Gly-MeGly-MeGly-MeGly-OH, amide bond, 12-membered ring, BOP/DIEA, DMF, 1.0 mM”, the ring closure, yield after HPLC amounted to 5%.

For `CC[C@H](C)[C@@H]1NC(=O)[C@H](C)NC(=O)[C@H](CC(C)C)NC(=O)[C@H](CO)NC(=O)[C@H](CC(N)=O)NC(=O)[C@H](Cc2ccccc2)NC(=O)[C@@H]2CCCN2C1=O` [cyclo-(Pro-Phe-Asn-Ser-Leu-Ala-Ile)], the ring closure, yield after HPLC (from H-Pro-Phe-Asn-Ser-Leu-Ala-Ile-OH, amide bond, 21-membered ring, BOP/DIPEA, DMF, -10.0 °C) was found to be 67%.

Consider `C[C@@H]1NC(=O)[C@H](Cc2ccccc2)N(Cc2c(O)cccc2[N+](=O)[O-])C(=O)[C@H](CCCNC(=N)N)NC(=O)[C@H](Cc2ccc(O)cc2)N(Cc2c(O)cccc2[N+](=O)[O-])C1=O` [cyclo-[(Hnb)Tyr-Arg-(Hnb)Phe-(D)Ala]], for which the ring closure, yield after HPLC under setting [5] stood at 18%.

`C[C@@H]1NC(=O)[C@H](Cc2ccccc2)N(Cc2c(O)cccc2[N+](=O)[O-])C(=O)[C@H](CCCNC(=N)N)NC(=O)[C@H](Cc2ccc(O)cc2)N(Cc2c(O)cccc2[N+](=O)[O-])C1=O` [cyclo-[(Hnb)Tyr-Arg-(Hnb)Phe-Ala]]: under setting [5], the ring closure, yield after HPLC stood at 13%.

Take `C=CCN1CC[C@]23c4c5ccc(O)c4O[C@H]2C(=O)CC[C@@]3(O)[C@H]1C5` [naloxone, reference compound]: the “effect of naloxone on the EJC reduction caused by the cyclic tetrapeptide mixture” value in series [1] (naloxone 1 μM added to the tissue bathing solution with the tetrapeptide mixture (1 μM)) is on record as “inhibits this effect; also recorded: reversed”.

In the case of Cyclo-(Pro-Phe-Asn-Ser-Leu-Ala-Ile), under setting [6], the ring closure, yield after HPLC is 10%.

Cyclo-(SCH2CH2-Gly-Arg-Pro-Phe-Gly): under “other bond, 18-membered ring, BOP/DIEA, DMF, 1.0 mM, -10.0 °C”, the ring closure, yield after HPLC was 31%.

Consider Cyclo-[Arg-Gly-Asp-Gly-β-Ala], for which, under setting [7], the ring closure, yield after HPLC is 9%.

Regarding Cyclo-[DGCatRG], where the note is “amide bond, 16-membered ring, DIEA, DMF, resin, with chain assembly”, the ring closure, yield after HPLC amounted to 11%.

For the molecule Cyclo-[Leu-Asp-Val-Gly-β-Ala], under setting [7], the ring closure, yield after HPLC amounted to 18%.

For the molecule Cyclo-[Phe-Lys-Trp-Gly-β-Ala], the ring closure, yield after HPLC under setting [7] was 15%.

Consider H-Ala-Phe-Leu-Pro-Ala-O-linker-resin?, for which the ring closure, conversion in series [2] (resin) is 0%.

In series [2] (BOP/DIEA), H-Ala-Phe-Leu-Pro-Ala-OH? gave a ring closure, conversion of 0%.

Take cyclo-(Pro-Phe-Asn-Ser-Leu-Ala-Ile): under setting [6], the ring closure, yield after HPLC was found to be 25%.

“cyclo-[(Hnb)Tyr-Arg-(Hnb)Phe-(D)Ala] [Product A]”: the stability to heat result in series [3] is “Unstable to heat”. Moreover, the stability to hydrolysis result in series [4] is given as “Stable to hydrolysis”.

For “cyclo-[(Hnb)Tyr-Arg-(Hnb)Phe-Ala] [Product B]”, in series [3], the stability to heat entry is “Stable to heat”. Further, in series [4], the stability to hydrolysis result is reported as “Stable”.

In turn, cyclo-[D-G-Amb-R-G] had a ring closure, yield after HPLC (amide bond, DIPEA, DMF, resin, with chain assembly) of 49%.

cyclo-[DAmbGRG] returned a ring closure, yield after HPLC under setting [8] of 5%.

cyclo-[DGAmbRG]: the ring closure, yield after HPLC under setting [8] was 7.6%.

For the molecule “cyclo[Tyr-Arg-Phe-Gly] (SEQ ID NO:42) and cyclo[Tyr-Arg-D-Phe-Gly] (SEQ ID NO:42) [WP 152]”, in series [1] (1 μM in tissue bathing solution, EJCs recorded during 100 minutes (FIG. 10)), the “EJC amplitude and frequency” value is “greatly reduces the EJC amplitude and frequency”. The “average excitatory junction current (EJC) amplitude and frequency” value in series [1] (1 μM, following 20 minutes of exposure, each bar average of at least 60 recordings (FIG. 11)) is “highly significant decrease”. The transmitter release result in series [1] (FIGS. 10 and 11, mixture of compounds) is recorded as “greatly reduces transmitter release”. The “opiate agonism inferred from reversal by naloxone” value in series [1] (one or both of the compounds, strongly suggested, not measured directly) is “potent μ-opiate agonists”.
